# Laboratory results reported in US20250340511A1, “CELLULOSE SYNTHASE INHIBITORS AS A NEW CLASS OF HERBICIDE AND NON-GMO CROPS THAT ARE RESISTANT TO THE HERBICIDE” (Purdue Research Foundation, priority 2017, published 2025).
# Read-outs that look alike come from different tables or passages of the source.
# Assays:
# [1] = tested on: cesa6 E929K mutant and transgenic plants that express CesA6 E929K in wildtype; experiment: root growth of cesa6 E929K mutant and CesA6 E929K transgenic plants; format: in vivo; conditions: Arabidopsis thaliana; 1 μM of ES20; read-out: root length relative to plants grown on normal media
# Excerpt: The root length of […] mutant and transgenic plants that express CesA6^E929K in wildtype is about 80% of those grown on normal media.
# The mutations we found are located in Arabidopsis thaliana CesA6 (AT5G64740), CesA4 (AT5G44030), CesA7 (AT5G17420) and CesA8 (AT4G18780) genes. Single nucleotide change in these mutants causes single amino acid change in CesA proteins and lead to reduced sensitivity to cellulosin (endosidin20 or ES20). The mutations we have discovered are listed in Table 1 and FIG. 11A showing the conserved amino acid residues of those subtypes of cellulose synthases. […] One is to create mutations in CesA6 homology gene in crop. The second is to express the mutant CesA6 in crops without knocking out endogenous CesA genes.
# tobacco pollen tube = experiment: tobacco pollen growth assay; format: cell-based; conditions: in vitro culture
# Procedure: (§1) In order to identify small molecules that could be used in studying plant membrane trafficking, chemical libraries have been screened first using tobacco pollen growth assay and then Arabidopsis live cell imaging assay (Drakakaki G. et al., Proc Natl Acad Sci USA 2011, 108, 17850-17855). In primary screen, small molecules that inhibited pollen gemination or pollen tube growth in in vitro culture condition were selected. For secondary screen, selected small molecules were tested in Arabidopsis plants expressing different fluorescence-tagged cellular markers. […] Locations of general organelle markers, such as HDEL-GFP (Endoplasmic Reticulum, ER), Gop1p-YFP (Golgi), SYP61-CFP (Trans-Golgi Network, TGN) and VHA1-GFP (TGN), are unaffected as well by ES20 treatment (FIGS. 9A and 9B).
# [2] = biological target: T1, CesA6 central cytoplasmic domain (Arabidopsis thaliana, UniProt Q94JQ6); experiment: biochemical; format: binding; conditions: MST; SUMO-His / GFP tagged CesA6 central cytoplasmic domain purified from E. coli; read-out: dissociation constant (Kd)
# T1 construct: we expressed and purified the central cytoplasmic domain of CesA6 from E. coli; made in house; host or cells: E. coli
# T1 sequence (Q94JQ6 322-868 limits assumed): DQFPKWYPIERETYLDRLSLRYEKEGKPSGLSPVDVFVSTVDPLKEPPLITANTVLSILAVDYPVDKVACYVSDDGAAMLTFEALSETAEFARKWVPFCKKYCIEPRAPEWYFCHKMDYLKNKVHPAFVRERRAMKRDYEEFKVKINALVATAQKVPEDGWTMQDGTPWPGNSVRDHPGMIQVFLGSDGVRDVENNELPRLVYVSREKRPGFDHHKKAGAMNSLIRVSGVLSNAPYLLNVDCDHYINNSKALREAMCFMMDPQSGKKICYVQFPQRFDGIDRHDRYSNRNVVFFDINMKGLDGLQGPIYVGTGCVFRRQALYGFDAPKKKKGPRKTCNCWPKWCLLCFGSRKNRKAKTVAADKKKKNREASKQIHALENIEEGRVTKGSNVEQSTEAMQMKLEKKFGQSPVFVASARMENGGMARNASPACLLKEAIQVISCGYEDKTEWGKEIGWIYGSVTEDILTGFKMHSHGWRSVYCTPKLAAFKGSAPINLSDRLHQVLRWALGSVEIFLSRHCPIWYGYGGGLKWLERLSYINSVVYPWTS
# tomato = tomato growth on media containing ES20; format: in vivo; conditions: grown on growth media containing ES20
# Excerpt: (§2) FIG. 8B depicts 16-day-old tomato and horseweed grown on the media in the absence and presence of Cellulosin. Bars, 1 cm.
# (§3) Because cellulose synthase is highly conserved in plants and ES20 targets the conserved catalytic domain, we hypothesize that ES20 is active in different plants, including common weeds. We tested this hypothesis by growing tomato and horseweed on growth media containing ES20.
# [3] = tested on: fra5 (CesA7 P557T) plants; experiment: growth response of fra5 mutant to ES20; format: in vivo, Arabidopsis thaliana
# Excerpt: (§4) FIG. 6A. Seedlings of Wildtype and fra5 grown on growth media supplemented with DMSO or ES20. FIG. 6B. Seedlings of Wildtype and any1 grown on growth media supplemented with DMSO or ES20. FIGS. 6C, 6D, 6E and 6F depict quantification on the growth of wildtype, […] and any/in the presence or absence of ES20.
# (§5) Due to the conservation of plant CesAs in their central cytoplasmic domains, we hypothesized that ES20 targeted multiple CesAs to inhibit growth. In order to test this hypothesis, we tested the response of fra5 and any/to ES20. The mutant fra5 carries a mutation of P557T in Arabidopsis thaliana CesA7. CesA7 P557 aligns to CesA6 P595. […] The mutant any/carries a mutation of D604N in Arabidopsis CesA1. D604 in CesA1 aligns to D605 in CesA6.
# horseweed = horseweed growth on media containing ES20; format: in vivo; conditions: grown on growth media containing ES20
# Excerpt: as §2, §3
# [4] = tested on: wildtype Arabidopsis seedlings; experiment: Arabidopsis seedling root growth on media supplemented with compound; format: in vivo, Arabidopsis thaliana; conditions: for activity at 1 µM: Arabidopsis thaliana
# Procedure: FIG. 2A. […] FIG. 2B. […] FIG. 2C. Quantification on the root length of 6 days old wildtype and mutant seedlings grown on growth media supplemented with DMSO solvent control. FIG. 2D. […] FIG. 2E. The ratio of root length from plants grown on 1 μM ES20 and those grown on DMSO for each genotype. The root length of wildtype plants grown on 1 μM ES20 was reduced to about 25% of those grown on DMSO. […] FIG. 2F.
# The root length of wildtype plants grown on 1 μM ES20 is about 20% of those that are grown on normal media.
# Individual hypocotyl epidermal cells from plants grown on ES20 media are swollen as well in compare with those grown on regular media (FIG. 1H). These growth assays indicate that ES20 inhibits cell growth and causes cells to grow in an isotropic manner instead of anisotropic manner. The composition and organization of cell wall determines plant cell shapes.
# In order to identify the cell growth pathways that are targeted by ES20, we performed a chemical genetic screen for mutants that have reduced sensitivity to this growth inhibitor. […] However, we found plants that have normal green cotyledons and leaves and elongated roots. These plants became obviously heathier and stronger than other plants after two weeks of growth on ES20 and were transferred to soil to get the M3 population. […] We generated the mapping population and used high-throughput whole genome sequencing to clone the mutant genes. […] 10 out of the 12 mutants were in CesA6 and two in CesA7. After two times of backcrosses, we consistently detected less sensitivity in these mutants to ES20 (FIGS. 2A to 2E).
# In order to identify key structure in ES20 that causes its inhibition activity, we collected three close analogs of ES20 (FIG. 7A) and tested for their effect in inhibiting plant growth.
# [5] = tested on: general membrane trafficking (PIN2, BRI1, HDEL-GFP, Gop1p-YFP, SYP61-CFP, VHA1-GFP); experiment: live cell imaging of fluorescence-tagged cargo and organelle markers; format: cell-based, Arabidopsis
# Procedure: Transgenic plants expressing different fluorescence-tagged proteins were examined for their cellular localization in the DMSO control treatment and after 2 hours of 5 μM ES20 treatment.
# as §1
# [6] = tested on: CSC (YFP-CesA6) trafficking in root epidermal cells; experiment: YFP-CesA6 localization and FRAP after short-term ES20 treatment; format: cell-based, Arabidopsis
# Excerpt: FIGS. 5A and 5B. […] FIGS. 5C and 5D. […] FIGS. 5E and 5F. The exocytic delivery of CSC to the plasma membrane was reduced after ES20 treatment. *** indicates p<0.001 by paired t-test.
# A large knowledge gap in plant biology is that it is […] how the activities of large protein complexes, such as CSC, are integrated with their cellular transport. Golgi localized CSCs are delivered to the plasma membrane to catalyze cellulose synthesis. CSCs are also localized to some small vesicles named SmaCCs. It is not known what occurs to CSCs when the catalytic core fails to bind a functional substrate. In order to understand better on the integration of CSC catalytic activity and CSC trafficking, we took a straight approach and observed the localization of CesA6 after short-term ES20 treatment. […] Reduced CSC density at the plasma membrane and increased SmaCCs density could be the result of increased endocytosis or decreased exocytic delivery of CSC. We then performed fluorescence recovery after photobleaching experiment to test whether the exocytic delivery of CSC was affected by ES20 treatment. We bleached YFP-CesA6 fluorescence at the plasma membrane and then observed the delivery of new CSC to the plasma membrane (FIG. 5D).
# [7] = tested on: dark-grown Arabidopsis hypocotyls; experiment: crystalline cellulose content in dark-grown seedlings; format: in vivo, Arabidopsis thaliana; conditions: concentration printed as 'M ES20'
# Excerpt: Swollen cells and organs in plants are often caused by direct or indirect disruption of cell wall biosynthesis or organization. For example, swollen cells and roots have been found in cesa mutants and in plants treated with inhibitors of cellulose synthesis and microtubule organization (Arioli, T., et al., Science 1998, 279, 717-720; Burn, J. E., et al., Plant Physiol. 2002, 129, 797-807). The retarded growth and cell swollen phenotypes indicate that ES20 could affect cell growth through interfering with cell wall biosynthesis or organization. To test whether ES20 affects cell wall composition, we took the straightforward approach of analyzing crystallize cellulose content in seedlings grown in the presence of different concentrations of ES20 (Updegraff, D. M. Anal. Biochem. 1969, 32, 420-424). […] The content of crystalline cellulose in seedlings grown on M ES20 was reduced to about 50% of the seedlings grown in the absence of ES20 (FIG. 1J).
# [8] = tested on: any1 (CesA1 D604N) plants; experiment: growth response of any1 mutant to ES20; format: in vivo, Arabidopsis
# Excerpt: as §4, §5
structure (smiles),measurement,setting,value
COc1ccc(C(=O)NC(=S)NNC(=O)c2ccccc2C)cc1 [ES20],activity at 1 µM,[1],~80%
same,tobacco pollen tube growth,tobacco pollen tube,inhibited tobacco pollen tube growth
same,Kd,[2],15.4 ± 5.9 µM
same,growth inhibition of tomato,tomato,significantly inhibit the growth
same,sensitivity of fra5 plants to ES20,[3],reduced sensitivity to ES20
same,growth inhibition of horseweed,horseweed,significantly inhibit the growth
same,root phenotype after short-term treatment,[4]; 5 μM for 12 hours in liquid growth media,roots became swollen in the tip region
same,activity at 1 µM,"[4]; 144 h, read-out: root length relative to plants grown on DMSO",~25%
same,activity at 1 µM,[4]; read-out: root length relative to plants grown on normal media,~20%
same,hypocotyl phenotype of seedlings grown under dark condition,"[4]; dark-grown, dosage dependent",shorter and swollen hypocotyls
same,root growth arrest,"[4]; wild type plants, 5 μM",completely arrests root growth
same,root phenotype of seedlings grown on media with compound,"[4]; wildtype, dosage dependent",shorter and swollen roots
same,trafficking of cargo proteins PIN2 and BRI1,[5],did not significantly affect the trafficking
same,"locations of general organelle markers (ER, Golgi, TGN)","[5]; 2 hours of 5 μM ES20 treatment (FIGS. 9A, 9B)",unaffected
same,density of plasma membrane localized CesA6,"[6]; root epidermal cells, short-term ES20 treatment",significantly reduced
same,numbers of SmaCCs that contain CesA6,[6]; short-term ES20 treatment,significantly increased
same,CSC delivery to the plasma membrane (FRAP),[6]; versus DMSO control,significantly lower than the DMSO control
same,content of crystalline cellulose relative to seedlings grown in the absence of ES20,[7],about 50%
same,sensitivity of any1 plants to ES20,[8],less sensitive to ES20
